Data reported in patent US20240189318A1, “THERAPEUTIC REGIMENS OF AN INHIBITOR OF THE ENZYMATIC ACTIVITY OF BRG1 AND BRM” (FOGHORN THERAPEUTICS INC., priority 2021, published 2024).
Like-named read-outs stand apart in the source and are kept apart here.

Key:
[1] = molecular target: T1, CYP1A2 (Homo sapiens, UniProt P05177); test: Depletion by recombinant CYP enzyme, CYP1A2; type: in vitro ADME; design: from tissue; host or cells: pooled human liver microsomes; conditions: recombinant 1A2
T1 sequence (P05177 1-516): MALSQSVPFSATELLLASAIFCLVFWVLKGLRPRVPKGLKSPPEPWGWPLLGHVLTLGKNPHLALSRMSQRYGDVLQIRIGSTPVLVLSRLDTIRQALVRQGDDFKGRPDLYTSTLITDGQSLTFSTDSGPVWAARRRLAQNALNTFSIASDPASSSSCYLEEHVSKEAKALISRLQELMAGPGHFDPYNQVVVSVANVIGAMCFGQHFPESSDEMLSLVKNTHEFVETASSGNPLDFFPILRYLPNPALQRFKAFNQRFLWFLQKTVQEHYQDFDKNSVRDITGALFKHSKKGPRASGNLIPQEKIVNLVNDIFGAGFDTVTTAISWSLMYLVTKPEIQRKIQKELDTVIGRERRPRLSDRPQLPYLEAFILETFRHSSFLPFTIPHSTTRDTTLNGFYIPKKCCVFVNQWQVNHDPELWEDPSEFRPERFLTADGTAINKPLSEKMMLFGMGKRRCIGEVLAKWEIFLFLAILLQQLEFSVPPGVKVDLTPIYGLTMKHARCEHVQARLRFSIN

[2] = tested on: CYP3a23 mRNA; test: CYP mRNA expression in cultured rat hepatocytes, CYP3a23; type: in vitro ADME; conditions: 0.3 to 100 nM
[3] = tested on: Uveal melanoma cell lines, prostate cancer cells, acute leukemia cells, histocytic lymphoma cells; test: 3-day growth inhibition, all cell lines of Table 6; type: cell-based; conditions: 3 days
[4] = tested on: CYP3A activity; test: CYP enzyme activity in cultured human hepatocytes, CYP3A4; type: in vitro ADME
[5] = molecular target: T2, P-gp (Homo sapiens, UniProt P08183); test: Transporter inhibition in MDCK-II cells, P-gp; type: in vitro ADME; conditions: for IC50: probe quinidine 0.1 μM
T2 construct: expressed in transfected cells; host or cells: MDCK-II

[6] = tested on: CYP3A4/5; test: CYP enzyme inhibition in pooled human liver microsomes, CYP3A4/5; conditions: for inhibition at 10 µM / inhibition at 30 µM: Enzyme activity (% inhibition), CYP3A4/5
[7] = tested on: CYP3A4 mRNA; test: CYP mRNA level (qRT-PCR) in cultured human hepatocytes, CYP3A4; type: in vitro ADME; conditions: 72 hours
[8] = molecular target: CHD4 enzyme (Homo sapiens, UniProt Q14839); test: ADP-Glo ATPase assay, CHD4; type: biochemical; conditions: concentrations up to 200 μM (n=3)
[9] = Bidirectional transport in MDCK control cells (passive permeability); type: in vitro ADME; conditions: dog; for Papp B→A at 1 μM / Papp B→A at 50 μM / Papp A→B at 1 μM / Papp A→B at 10 μM / Papp B→A at 10 μM / Papp A→B at 50 μM: MDCK; for Papp A→B at 10 μM / Papp B→A at 10 μM: 10 μM compound of formula (I)
[10] = tested on: MDCK control cells; test: as above; type: in vitro ADME; conditions: MDCK control cells
[11] = molecular target: T3, 2C19 (Homo sapiens, UniProt P33261); test: Selective chemical inhibition of compound of formula (I) depletion in human liver microsomes, CYP2C19; type: in vitro ADME; conditions: reaction phenotyping
T3 construct: from tissue; host or cells: human liver microsomes

[12] = molecular target: CYP2D6 (Homo sapiens, UniProt P10635); test: CYP enzyme inhibition in pooled human liver microsomes, CYP2D6; conditions: for inhibition at 30 µM: human, microsomes, Enzyme activity (% inhibition), CYP2D6, probe Dextromethorphan
[13] = molecular target: BRM (Homo sapiens, UniProt P51531); test: biochemical
[14] = molecular target: T4, OAT1 (Homo sapiens, UniProt Q4U2R8); test: Transporter inhibition in MDCK-II cells, OAT1; type: in vitro ADME; conditions: for IC50: probe p-aminohippurate 2 μM
T4 construct: expressed in transfected cells; host or cells: MDCK-II
T4 sequence (Q4U2R8 1-563): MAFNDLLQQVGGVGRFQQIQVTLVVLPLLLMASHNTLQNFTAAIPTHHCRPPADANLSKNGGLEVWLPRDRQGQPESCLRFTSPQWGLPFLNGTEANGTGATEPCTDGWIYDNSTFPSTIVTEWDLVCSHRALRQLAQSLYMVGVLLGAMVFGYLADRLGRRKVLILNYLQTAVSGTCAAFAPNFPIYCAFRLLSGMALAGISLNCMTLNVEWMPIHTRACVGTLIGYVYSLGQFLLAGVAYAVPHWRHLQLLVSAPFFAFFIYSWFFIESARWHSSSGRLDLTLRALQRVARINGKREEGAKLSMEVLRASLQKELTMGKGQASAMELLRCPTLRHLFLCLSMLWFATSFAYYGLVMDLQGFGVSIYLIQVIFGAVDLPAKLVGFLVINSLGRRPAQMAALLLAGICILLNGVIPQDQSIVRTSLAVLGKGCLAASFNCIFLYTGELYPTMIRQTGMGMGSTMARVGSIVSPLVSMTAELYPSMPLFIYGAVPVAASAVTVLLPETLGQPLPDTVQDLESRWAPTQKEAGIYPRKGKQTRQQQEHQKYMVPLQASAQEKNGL

[15] = Oral absorption in dogs, capsule; type: in vivo; conditions: administered in a capsule
[16] = tested on: 92-1 uveal melanoma cells; test: 92-1 uveal melanoma xenograft, Example 16; type: in vivo
[17] = PHLM, concentrations up to 30 μM
[18] = human, pooled human liver microsomes, probe midazolam (1′-hydroxylation), 30 Minutes Pre-incubation with NADPH, probe Midazolam, PHLM
[19] = human, pooled human liver microsomes, probe midazolam (1′-hydroxylation), 30 Minutes Pre-incubation without NADPH, probe Midazolam, PHLM
[20] = human, pooled human liver microsomes, probe midazolam (1′-hydroxylation), No Pre-incubation, probe Midazolam, PHLM
[21] = human, pooled human liver microsomes, probe testosterone (6β-hydroxylation), 30 Minutes Pre-incubation with NADPH, probe Testosterone, PHLM
[22] = human, pooled human liver microsomes, probe testosterone (6β-hydroxylation), 30 Minutes Pre-incubation without NADPH, probe Testosterone, PHLM
[23] = human, pooled human liver microsomes, probe testosterone (6β-hydroxylation), No Pre-incubation, probe Testosterone, PHLM
[24] = BCRP assay, 50 μM compound of formula (I)
[25] = P-gp assay, 1 μM compound of formula (I)

Sequence of CYP2D6 (P10635 whole entry): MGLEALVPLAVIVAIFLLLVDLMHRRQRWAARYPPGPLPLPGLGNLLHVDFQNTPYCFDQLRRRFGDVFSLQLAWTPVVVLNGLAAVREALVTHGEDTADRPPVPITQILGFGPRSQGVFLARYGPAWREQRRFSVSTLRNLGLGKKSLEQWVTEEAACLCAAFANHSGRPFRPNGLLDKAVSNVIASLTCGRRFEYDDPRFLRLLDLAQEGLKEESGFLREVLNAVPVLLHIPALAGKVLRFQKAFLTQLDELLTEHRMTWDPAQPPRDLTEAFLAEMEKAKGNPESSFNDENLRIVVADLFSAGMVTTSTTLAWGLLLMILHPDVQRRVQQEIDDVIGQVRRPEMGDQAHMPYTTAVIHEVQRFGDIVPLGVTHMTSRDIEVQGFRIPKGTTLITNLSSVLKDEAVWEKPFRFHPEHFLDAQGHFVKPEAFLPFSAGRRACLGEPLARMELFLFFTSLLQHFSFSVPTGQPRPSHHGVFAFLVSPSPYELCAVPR
T2 sequence (P08183 whole entry): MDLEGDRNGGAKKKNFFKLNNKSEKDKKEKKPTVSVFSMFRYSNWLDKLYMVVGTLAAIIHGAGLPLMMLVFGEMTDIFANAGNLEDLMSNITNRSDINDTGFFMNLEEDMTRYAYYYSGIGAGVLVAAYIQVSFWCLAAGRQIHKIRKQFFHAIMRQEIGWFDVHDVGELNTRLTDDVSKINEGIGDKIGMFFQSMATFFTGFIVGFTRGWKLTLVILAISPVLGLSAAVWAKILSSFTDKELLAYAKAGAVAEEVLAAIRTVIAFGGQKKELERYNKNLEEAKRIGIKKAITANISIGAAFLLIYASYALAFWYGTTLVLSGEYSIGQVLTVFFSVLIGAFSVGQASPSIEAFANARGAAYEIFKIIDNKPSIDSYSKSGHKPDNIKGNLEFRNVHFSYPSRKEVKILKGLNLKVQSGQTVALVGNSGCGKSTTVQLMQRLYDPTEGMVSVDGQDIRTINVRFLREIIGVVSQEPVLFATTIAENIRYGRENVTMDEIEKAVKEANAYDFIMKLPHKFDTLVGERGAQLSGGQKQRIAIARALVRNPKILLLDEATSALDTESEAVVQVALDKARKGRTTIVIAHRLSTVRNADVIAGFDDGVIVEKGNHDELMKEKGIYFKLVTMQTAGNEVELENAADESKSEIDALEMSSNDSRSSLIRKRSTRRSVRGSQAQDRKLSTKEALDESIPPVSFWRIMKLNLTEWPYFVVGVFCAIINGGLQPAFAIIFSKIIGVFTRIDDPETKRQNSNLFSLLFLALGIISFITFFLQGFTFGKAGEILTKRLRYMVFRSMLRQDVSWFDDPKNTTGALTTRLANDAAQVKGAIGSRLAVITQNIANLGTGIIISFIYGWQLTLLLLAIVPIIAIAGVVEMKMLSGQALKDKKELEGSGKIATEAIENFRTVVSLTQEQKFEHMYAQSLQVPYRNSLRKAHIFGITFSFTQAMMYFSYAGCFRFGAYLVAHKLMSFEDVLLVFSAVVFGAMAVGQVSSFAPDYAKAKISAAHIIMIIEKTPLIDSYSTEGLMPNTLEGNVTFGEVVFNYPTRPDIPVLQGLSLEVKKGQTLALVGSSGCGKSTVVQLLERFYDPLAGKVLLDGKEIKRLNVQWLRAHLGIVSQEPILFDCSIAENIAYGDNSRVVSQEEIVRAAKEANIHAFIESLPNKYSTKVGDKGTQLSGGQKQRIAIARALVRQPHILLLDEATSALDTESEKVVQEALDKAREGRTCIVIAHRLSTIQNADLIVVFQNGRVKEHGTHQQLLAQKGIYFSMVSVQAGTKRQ
T3 sequence (P33261 whole entry): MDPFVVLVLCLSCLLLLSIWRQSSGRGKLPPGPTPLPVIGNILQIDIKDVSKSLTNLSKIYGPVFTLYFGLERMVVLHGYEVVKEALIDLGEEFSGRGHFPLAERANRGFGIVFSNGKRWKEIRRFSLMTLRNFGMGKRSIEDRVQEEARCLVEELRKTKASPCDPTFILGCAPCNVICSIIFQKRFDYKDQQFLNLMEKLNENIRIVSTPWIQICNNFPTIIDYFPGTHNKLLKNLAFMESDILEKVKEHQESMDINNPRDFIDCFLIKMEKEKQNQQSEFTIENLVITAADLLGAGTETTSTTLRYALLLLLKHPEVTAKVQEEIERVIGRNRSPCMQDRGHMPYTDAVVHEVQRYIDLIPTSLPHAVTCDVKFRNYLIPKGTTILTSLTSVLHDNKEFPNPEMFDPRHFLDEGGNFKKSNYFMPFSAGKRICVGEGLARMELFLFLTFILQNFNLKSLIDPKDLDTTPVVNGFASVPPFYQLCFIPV
Sequence of BRM (P51531 whole entry): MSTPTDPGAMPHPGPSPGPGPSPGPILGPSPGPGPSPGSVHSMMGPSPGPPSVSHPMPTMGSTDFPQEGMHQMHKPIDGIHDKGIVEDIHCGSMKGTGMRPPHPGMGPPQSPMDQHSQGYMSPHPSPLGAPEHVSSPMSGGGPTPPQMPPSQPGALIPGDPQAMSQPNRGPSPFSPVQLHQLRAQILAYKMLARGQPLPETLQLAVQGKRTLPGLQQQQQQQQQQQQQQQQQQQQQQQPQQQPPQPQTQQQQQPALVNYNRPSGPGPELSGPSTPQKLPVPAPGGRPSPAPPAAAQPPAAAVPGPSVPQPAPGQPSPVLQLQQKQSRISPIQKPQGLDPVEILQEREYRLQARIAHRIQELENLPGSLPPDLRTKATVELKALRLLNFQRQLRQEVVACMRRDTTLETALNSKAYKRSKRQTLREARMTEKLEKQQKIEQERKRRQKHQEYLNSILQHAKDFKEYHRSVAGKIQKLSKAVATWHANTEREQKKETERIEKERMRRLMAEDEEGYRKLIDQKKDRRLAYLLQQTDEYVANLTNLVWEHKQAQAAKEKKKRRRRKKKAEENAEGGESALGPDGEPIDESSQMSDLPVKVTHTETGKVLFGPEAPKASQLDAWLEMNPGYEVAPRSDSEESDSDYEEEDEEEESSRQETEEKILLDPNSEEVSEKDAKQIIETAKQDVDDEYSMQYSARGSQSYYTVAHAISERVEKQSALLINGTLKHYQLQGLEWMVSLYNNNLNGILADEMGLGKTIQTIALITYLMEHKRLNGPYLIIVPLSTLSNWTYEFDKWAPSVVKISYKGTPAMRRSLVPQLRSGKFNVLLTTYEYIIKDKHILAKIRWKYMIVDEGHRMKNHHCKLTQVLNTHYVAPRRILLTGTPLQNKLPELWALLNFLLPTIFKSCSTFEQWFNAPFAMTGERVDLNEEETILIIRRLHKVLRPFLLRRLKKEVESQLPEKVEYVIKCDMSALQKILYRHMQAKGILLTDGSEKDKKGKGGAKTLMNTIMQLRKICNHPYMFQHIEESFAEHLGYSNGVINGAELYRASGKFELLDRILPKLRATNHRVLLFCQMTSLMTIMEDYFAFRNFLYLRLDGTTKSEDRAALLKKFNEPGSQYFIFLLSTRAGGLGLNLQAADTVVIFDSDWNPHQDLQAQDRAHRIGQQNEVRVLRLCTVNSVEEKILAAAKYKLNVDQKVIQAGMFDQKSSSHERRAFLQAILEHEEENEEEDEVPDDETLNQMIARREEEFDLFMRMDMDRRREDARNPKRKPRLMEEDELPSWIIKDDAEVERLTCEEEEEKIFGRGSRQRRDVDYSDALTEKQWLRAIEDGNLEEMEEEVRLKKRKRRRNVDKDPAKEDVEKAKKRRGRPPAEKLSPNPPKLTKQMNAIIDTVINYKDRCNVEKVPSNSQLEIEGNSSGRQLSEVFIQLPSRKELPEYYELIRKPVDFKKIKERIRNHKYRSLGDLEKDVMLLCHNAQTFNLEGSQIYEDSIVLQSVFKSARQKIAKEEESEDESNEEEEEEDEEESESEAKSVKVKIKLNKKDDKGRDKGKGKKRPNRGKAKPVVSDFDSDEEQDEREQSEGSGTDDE

COC[C@H](NC(=O)c1ccn(S(C)(=O)=O)c1)C(=O)Nc1nc(-c2cccc(N3C[C@@H](C)O[C@@H](C)C3)n2)cs1 [compound of formula (I), N-((S)-1-((4-(6-(cis-2,6-dimethylmorpholino)pyridin-2-yl)thiazol-2-yl)amino)-3-methoxy-1-oxopropan-2-yl)-1-(methylsulfonyl)-1H-pyrrole-3-carboxamide]
% Remaining of Compound of Formula (I) ([1]; 0.1 μM): 89.4%
% Remaining of Compound of Formula (I) ([1]; 1 μM): 113%
concentrations at which CYP3a23 mRNA expression was decreased ≥50% [2]: ≥ 10 nM
growth inhibition in all the cell lines [3]: potent growth inhibition
effect on CYP3A activity ([4]; 0.3 to 50 nM): minimal
decrease in CYP3A activity ([4]; concentrations 1 to 50 nM): ≤ 32%
R-value for P-gp inhibition in the gut ([5]; FDA guidance 2020, human dose of 300 mg): > 10
IC50 ([5]; P-gp in MDCK-II cells, read-out: Estimated IC50 using nominal concentrations): 18.5 µM
IC50 ([5]; P-gp, corrected, read-out: IC50 corrected for non-specific binding): 4.36 µM
time-dependent inhibition of CYP3A4/5 ([6]; PHLM): weak time-dependent inhibitor
direct inhibitory activity (% inhibition) toward CYP3A [6, 17]: < 50%
IC50 ([6]; human, pooled human liver microsomes): > 30 µM
inhibition at 30 min, 10 µM ([6]; human, pooled human liver microsomes, increase in CYP3A4/5 inhibition by preincubation, concentrations of ≤10 μM): < 20%
inhibition at 10 µM [6, 18]: 25.3%
inhibition at 30 µM [6, 18]: 40.2%
inhibition at 10 µM [6, 19]: 6.5%
inhibition at 30 µM [6, 19]: -1%
inhibition at 10 µM [6, 20]: 18.2%
inhibition at 30 µM [6, 20]: 13.6%
inhibition at 10 µM [6, 21]: 27.4%
inhibition at 30 µM [6, 21]: 49.3%
inhibition at 10 µM [6, 22]: 10.5%
inhibition at 30 µM [6, 22]: 20.8%
inhibition at 10 µM [6, 23]: 9.7%
inhibition at 30 µM [6, 23]: 18.4%
concentrations at which CYP3A4 mRNA expression was down-regulated (>50% decrease) [7]: ≥ 1 nM
inhibition of the ATPase activity of the CHD4 enzyme [8]: did not inhibit
Papp B→A at 1 μM [9]: 18.2 ×10⁻⁶ cm/s
Papp B→A at 50 μM [9]: 18.5 ×10⁻⁶ cm/s
Papp A→B at 1 μM ([9]; BCRP assay, 1 μM compound of formula (I)): 26 ×10⁻⁶ cm/s
Papp A→B at 10 μM ([9]; BCRP assay): 25.4 ×10⁻⁶ cm/s
Papp B→A at 10 μM ([9]; BCRP assay): 20.9 ×10⁻⁶ cm/s
Papp A→B at 50 μM [9, 24]: 21.3 ×10⁻⁶ cm/s
Papp B→A at 50 μM [9, 24]: 19.2 ×10⁻⁶ cm/s
Papp A→B at 1 μM [9, 25]: 28.8 ×10⁻⁶ cm/s
Papp B→A at 1 μM [9, 25]: 21 ×10⁻⁶ cm/s
Papp A→B at 10 μM ([9]; P-gp assay): 31 ×10⁻⁶ cm/s
Papp B→A at 10 μM ([9]; P-gp assay): 23.6 ×10⁻⁶ cm/s
Papp A→B at 50 μM ([9]; P-gp assay, 50 μM compound of formula (I)): 25.5 ×10⁻⁶ cm/s
Papp ([9]; MDCK control cells, read-out: apparent permeability coefficient (Papp) (B→A) or Papp (A→B)): ≥ 15 ×10⁻⁶ cm/s
passive permeability [10]: high passive permeability
role of CYP2C19 in metabolism in human liver microsomes [11]: possible involvement of CYP2C19 to a lesser extent
IC50 [12]: > 30 µM
direct inhibitory activity (% inhibition) toward CYP2D6 [12, 17]: < 50%
inhibition at 30 µM ([12]; 30 Minutes Pre-incubation with NADPH, PHLM): 9.6%
inhibition at 30 µM ([12]; 30 Minutes Pre-incubation without NADPH, PHLM): 11.5%
inhibition at 30 µM ([12]; No Pre-incubation, PHLM): 13.2%
IC50 [13]: 4.5 nM
IC50 ([14]; OAT1, corrected for difference between measured and nominal concentrations, read-out: IC50 corrected for non-specific binding): > 11.8 µM
IC50 ([14]; OAT1 in MDCK-II cells, read-out: Estimated IC50 using nominal concentrations): > 50 µM
inhibition toward OAT1 ([14]; nominal test concentrations up to 50 μM): minimal inhibition
oral absorption [15]: good oral absorption
tumor response at the highest dose ([16]; […], once daily oral gavage): tumor regression
tolerability based on % body weight change ([16]; all treatments): well tolerated
tumor growth inhibition ([16]; nude mice, 92-1 xenograft, once daily oral gavage, 3 weeks, increasing doses): tumor growth inhibition in a dose-dependent manner
